Measurements reported in ChEMBL document CHEMBL4145550, “Synthesis of N-(1-(6-acetamido-5-phenylpyrimidin-4-yl) piperidin-3-yl) amide derivatives as potential inhibitors for mitotic kinesin spindle protein” (Eur J Med Chem, 2018).

Columns and labels:
[1] = target: T1, Kinesin-like protein KIF11 (Homo sapiens, UniProt P52732); assay: Inhibition of human mitotic kinesin Eg5 motor domain (1 to 368 residues) assessed as reduction in steady-state basal ATPase activity using ATP as substrate by pyruvate kinase/lactate dehydrogenase enzyme coupled assay
T1 sequence (P52732 whole entry): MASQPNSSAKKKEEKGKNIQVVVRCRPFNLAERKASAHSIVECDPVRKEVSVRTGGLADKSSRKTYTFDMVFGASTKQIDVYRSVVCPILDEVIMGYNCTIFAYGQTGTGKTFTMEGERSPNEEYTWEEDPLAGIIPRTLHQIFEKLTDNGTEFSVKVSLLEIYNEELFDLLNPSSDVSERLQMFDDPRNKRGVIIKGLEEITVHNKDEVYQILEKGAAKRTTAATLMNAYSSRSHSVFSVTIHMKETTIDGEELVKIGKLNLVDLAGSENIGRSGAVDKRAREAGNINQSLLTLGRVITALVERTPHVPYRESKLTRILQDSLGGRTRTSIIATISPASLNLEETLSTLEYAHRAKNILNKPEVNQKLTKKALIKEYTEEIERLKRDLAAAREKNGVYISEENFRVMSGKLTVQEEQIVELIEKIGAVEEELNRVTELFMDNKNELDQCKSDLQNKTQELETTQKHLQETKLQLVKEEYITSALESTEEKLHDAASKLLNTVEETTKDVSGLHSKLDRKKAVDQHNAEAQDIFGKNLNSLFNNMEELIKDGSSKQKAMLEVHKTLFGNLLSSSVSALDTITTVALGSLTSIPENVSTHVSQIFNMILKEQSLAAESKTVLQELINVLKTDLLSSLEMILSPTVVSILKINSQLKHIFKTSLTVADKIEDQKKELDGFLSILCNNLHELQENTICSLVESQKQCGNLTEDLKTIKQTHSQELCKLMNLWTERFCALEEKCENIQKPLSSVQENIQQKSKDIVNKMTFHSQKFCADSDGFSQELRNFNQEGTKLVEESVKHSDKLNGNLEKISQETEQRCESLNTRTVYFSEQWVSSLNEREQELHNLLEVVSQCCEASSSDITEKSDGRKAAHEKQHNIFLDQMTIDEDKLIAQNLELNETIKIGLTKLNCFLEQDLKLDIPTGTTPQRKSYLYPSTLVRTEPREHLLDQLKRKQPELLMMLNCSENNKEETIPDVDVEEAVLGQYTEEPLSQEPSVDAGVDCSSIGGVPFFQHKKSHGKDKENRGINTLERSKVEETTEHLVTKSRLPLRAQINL

[2] = target: T1, Kinesin-like protein KIF11; assay: Inhibition of mitotic kinesin Eg5 (unknown origin)

Row | IC50 [1] [µM] | IC50 [2] [nM] | Compound
1 | 9.03 | – | CC(=O)Nc1ncnc(N2CCCC(NC(=O)COc3cccc(Cl)c3)C2)c1-c1ccccc1 (centres undefined)
2 | 11.4 | – | CC(=O)Nc1ncnc(N2CCCC(NC(=O)Cc3cccc(F)c3)C2)c1-c1ccccc1 (centres undefined)
3 | 4.86 | – | CC(=O)Nc1ncnc(N2CCCC(NC(=O)c3cccc(C(F)(F)F)c3)C2)c1-c1ccccc1 (centres undefined)
4 | – | 459 | COc1ccc(Nc2nc3cc(C(=O)O)ccc3n2Cc2ccccc2C(F)(F)F)cc1F
